According to article PMC10814857, “Functional Classification and Interaction Selectivity Landscape of the Human SH3 Domain Superfamily” (Cells, 2024):
Where “and” joins values, the source holds several entries; their conditions need not be identical. Equal values may be shown once. Peptide text beside a SMILES is read from it.

Columns and labels:
Assay in all cases: Fluorescence polarization SH3 domain-PRP binding
Conditions in all cases: FP, 0.2 µM fluorescein-labeled peptide, SH3 domain 0-200 µM, Tris/HCl pH 7.5, 25 °C, quadratic fit
[1] = biological target: T1, SH3GLB1 SH3 domain (aa 305-365) (Homo sapiens, UniProt Q9Y371)
T1 construct: 305-365; GST (N); made in house; host or cells: Escherichia coli CodonPlus, Rosetta, BL21(DE3)
T1 sequence (Q9Y371 305-365): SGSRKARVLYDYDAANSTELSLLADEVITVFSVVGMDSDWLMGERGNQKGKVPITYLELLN
Method in brief: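 First, labeled proline-rich peptide was held at 0.2 µM in 30 mM Tris/HCl (pH 7.5), 5 mM MgCl2, 3 mM DTT. Next, SH3 domains as GST fusions were added from 0 to 200 µM at 25 °C. Finally, polarization (470/560 nm) was fitted quadratically to give Kd.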

[2] = biological target: T2, ARHGAP12 SH3 domain (aa 12-74) (Homo sapiens, UniProt Q8IWW6)
T2 construct: 12-74; GST (N); made in house; host or cells: Escherichia coli CodonPlus, Rosetta, BL21(DE3)
T2 sequence (Q8IWW6 12-74): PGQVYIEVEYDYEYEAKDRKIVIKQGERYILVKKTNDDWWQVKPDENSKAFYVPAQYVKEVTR
Description: (§1) The interaction between fluorescein-labeled proline-rich peptides (0.2 µM) and increasing concentrations of SH3 domains (ranging from 0 to 200 µM) was measured in a buffer (containing 30 mM Tris/HCl (pH 7.5), 5 mM MgCl2, and 3 mM DTT at 25 °C) in a total volume of 200 µL using a Fluoromax 4 fluorimeter in polarization mode and a quartz glass fluorescence cuvette (Hellma Ultra-Micro Cuvette 105.250-QS, Thermo Fisher Scientific, Waltham, MA USA). Excitation was performed at 470 nm and emission was measured at 560 nm. Dissociation constants (Kd) were determined by fitting the concentration-dependent binding curve to a quadratic ligand binding equation.
(§2) Fluorescence polarization measurements were performed to determine the binding affinities of SH3 domain–PRP interaction pairs from the dot blot analysis. SH3 proteins were titrated at increasing concentrations against fluorescent PRPs, which were kept at a constant concentration of 0.2 µM. GRB2-2^W193K, which is defective in the binding of PRPs such as RP1, was used as a negative control as previously described. […] The resulting data (Figure S6) allowed the evaluation of equilibrium dissociation constants (Kd) for 45 interactions between the SH3 domains and the PRPs (Figure 2B; Table S6).
(§3) Figure S6. Interactions of the SH3 domains with fluorescent PRPs measured by fluorescence polarization.
(§4) Fluorescent peptides (0.2 µM) were titrated with increasing concentrations of the corresponding SH3 domains.
(§5) GRB2-2W193K, defective in the binding of PRPs such as RP1, was used as a negative control as previously described. The x-axis represents SH3 domain concentrations as GST fusion proteins in µM, while the y-axis represents fluorescence polarization. The equilibrium dissociation constants (Kd) for the respective measurements were determined by fitting the titration curves to a quadratic ligand-binding equation (solid lines). All Kd values are […]
(§6) Error bars are derived from the fitting errors.
(§7) (1 picture or pasted object on this page, not shown here)

[3] = biological target: T3, ITSN1-3 SH3 domain (aa 1002-1060) (Homo sapiens, UniProt Q15811)
T3 construct: 1002-1060; GST (N); made in house; host or cells: Escherichia coli CodonPlus, Rosetta, BL21(DE3)
T3 sequence (Q15811 1002-1060): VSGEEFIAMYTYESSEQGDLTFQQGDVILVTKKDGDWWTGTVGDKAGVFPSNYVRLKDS
Description: as §1, §2, §3, §4, §5, §6, §7

[4] = biological target: T4, ITSN1-1 SH3 domain (aa 740-806) (Homo sapiens, UniProt Q15811)
T4 construct: 740-806; GST (N); made in house; host or cells: Escherichia coli CodonPlus, Rosetta, BL21(DE3)
T4 sequence (Q15811 740-806): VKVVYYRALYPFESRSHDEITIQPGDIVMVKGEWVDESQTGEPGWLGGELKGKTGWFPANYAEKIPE
Description: as §1, §2, §3, §4, §5, §6, §7

[5] = biological target: T5, CRK-1 SH3 domain (aa 132-192) (Homo sapiens, UniProt P46108)
T5 construct: 132-192; GST (N); made in house; host or cells: Escherichia coli CodonPlus, Rosetta, BL21(DE3)
Description: as §1, §2, §3, §4, §5, §6, §7

[6] = biological target: T6, ABI1 SH3 domain (aa 446-505) (Homo sapiens, UniProt Q8IZP0)
T6 construct: 446-505; GST (N); made in house; host or cells: Escherichia coli CodonPlus, Rosetta, BL21(DE3)
Description: as §1, §2, §3, §4, §5, §6, §7

[7] = biological target: T7, ABL2 SH3 domain (aa 107-167) (Homo sapiens, UniProt P42684)
T7 construct: 107-167; GST (N); made in house; host or cells: Escherichia coli CodonPlus, Rosetta, BL21(DE3)
Description: as §1, §2, §3, §4, §5, §6, §7

[8] = biological target: T8, ITSN1-2 SH3 domain (aa 913-971) (Homo sapiens, UniProt Q15811)
T8 construct: 913-971; GST (N); made in house; host or cells: Escherichia coli CodonPlus, Rosetta, BL21(DE3)
T8 sequence (Q15811 913-971): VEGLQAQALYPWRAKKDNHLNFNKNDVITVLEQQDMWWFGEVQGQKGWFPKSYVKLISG
Description: as §1, §2, §3, §4, §5, §6, §7

[9] = biological target: T9, ARHGEF30 (OBSCN) SH3 domain (aa 5600-5667) (Homo sapiens, UniProt Q5VST9)
T9 construct: 5600-5667; GST (N); made in house; host or cells: Escherichia coli CodonPlus, Rosetta, BL21(DE3)
T9 sequence (Q5VST9 5600-5667): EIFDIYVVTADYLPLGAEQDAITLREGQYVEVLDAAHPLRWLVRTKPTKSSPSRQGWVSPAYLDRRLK
Description: as §1, §2, §3, §4, §5, §6, §7

[10] = biological target: T10, GRB2-1 SH3 domain (aa 1-58) (Homo sapiens, UniProt P62993)
T10 construct: 1-58; GST (N); made in house; host or cells: Escherichia coli CodonPlus, Rosetta, BL21(DE3)
Description: as §1, §2, §3, §4, §5, §6, §7

[11] = biological target: T11, GRB2-2 SH3 domain (aa 158-215) (Homo sapiens, UniProt P62993)
T11 construct: 158-215; GST (N); made in house; host or cells: Escherichia coli CodonPlus, Rosetta, BL21(DE3)
Description: as §1, §2, §3, §4, §5, §6, §7

[12] = biological target: T12, BIN1 SH3 domain (aa 520-593) (Homo sapiens, UniProt O00499)
T12 construct: 520-593; GST (N); made in house; host or cells: Escherichia coli CodonPlus, Rosetta, BL21(DE3)
T12 sequence (O00499 520-593): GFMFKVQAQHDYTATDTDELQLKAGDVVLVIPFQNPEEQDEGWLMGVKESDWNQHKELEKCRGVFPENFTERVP
Description: as §1, §2, §3, §4, §5, §6, §7

T6 sequence (Q8IZP0 446-505): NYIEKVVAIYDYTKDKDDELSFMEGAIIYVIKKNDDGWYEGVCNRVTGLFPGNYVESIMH
T5 sequence (P46108 132-192): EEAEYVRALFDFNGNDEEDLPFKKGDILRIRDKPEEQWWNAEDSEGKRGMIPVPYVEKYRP
T10 sequence (P62993 1-58): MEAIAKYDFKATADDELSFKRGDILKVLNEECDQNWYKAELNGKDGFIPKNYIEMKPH
T11 sequence (P62993 158-215): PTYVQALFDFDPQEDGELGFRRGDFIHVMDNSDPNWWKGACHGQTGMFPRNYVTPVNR
T7 sequence (P42684 107-167): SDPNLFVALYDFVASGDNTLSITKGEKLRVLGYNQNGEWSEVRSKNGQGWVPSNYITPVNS

Kd [1]	Kd [2]	Kd [3]	Kd [4]	Kd [5]	Kd [6]	Kd [7]	Kd [8]	Kd [9]	Kd [10]	Kd [11]	Kd [12]	Compound
> 200 µM	0.2 µM and < 0.5 µM	> 200 µM	> 200 µM	18.1 µM	> 200 µM	67.3 µM	> 200 µM	8.9 µM	> 200 µM	> 200 µM	12 µM	C[C@H](N)C(=O)N[C@@H](Cc1ccccc1)C(=O)N[C@@H](Cc1ccccc1)C(=O)N1CCC[C@H]1C(=O)N[C@@H](CC(N)=O)C(=O)N[C@@H](CO)C(=O)N1CCC[C@H]1C(=O)N[C@@H](CO)C(=O)N1CCC[C@H]1C(=O)N[C@@H](Cc1ccccc1)C(=O)N[C@H](C(=O)N1CCC[C@H]1C(=O)N1CCC[C@H]1C(=O)N1CCC[C@H]1C(=O)N1CCC[C@H]1C(=O)N[C@@H](CCC(N)=O)C(=O)N[C@H](C(=O)N1CCC[C@H]1C(=O)N[C@@H](CO)C(=O)N1CCC[C@H]1C(=O)N[C@@H](Cc1c[nH]cn1)C(=O)NCC(=O)N[C@H](C(=O)O)[C@@H](C)O)[C@@H](C)O)[C@@H](C)O [Peptide P7] (H-AFFPNSPSPFTPPPPQTPSPHGT-OH)
> 200 µM	> 200 µM	> 200 µM	> 200 µM	> 200 µM	> 200 µM	> 200 µM	> 200 µM	> 200 µM	> 200 µM	> 200 µM	> 200 µM	CC(C)C[C@H](NC(=O)[C@@H]1CCCN1C(=O)[C@@H]1CCCN1C(=O)[C@H](CO)NC(=O)[C@@H]1CCCN1C(=O)[C@H](CC(C)C)NC(=O)[C@H](Cc1c[nH]cn1)NC(=O)[C@@H](N)CCCNC(=N)N)C(=O)N[C@H](C(=O)N[C@@H](CCC(N)=O)C(=O)O)[C@@H](C)O [Peptide P8] (H-RHLPSPPLTQ-OH; N-terminus and C-terminus assumed)
> 200 µM	> 200 µM	> 200 µM	> 200 µM	> 200 µM	> 200 µM	> 200 µM	> 200 µM	> 200 µM	> 200 µM	> 200 µM	47 µM	CC[C@H](C)[C@H](N)C(=O)N[C@@H](C)C(=O)NCC(=O)N1CCC[C@H]1C(=O)N1CCC[C@H]1C(=O)N[C@H](C(=O)N1CCC[C@H]1C(=O)N1CCC[C@H]1C(=O)N[C@@H](CCCNC(=N)N)C(=O)N[C@@H](CCC(N)=O)C(=O)N[C@@H](CO)C(=O)O)C(C)C [Peptide P9] (H-IAGPPVPPRQS-OH)
> 200 µM	> 200 µM	> 200 µM	> 200 µM	> 200 µM	> 200 µM	> 200 µM	> 200 µM	> 200 µM	> 200 µM	> 200 µM	> 200 µM	CC[C@H](C)[C@H](NC(=O)[C@H](Cc1c[nH]cn1)NC(=O)[C@@H](N)CCC(N)=O)C(=O)N1CCC[C@H]1C(=O)N[C@@H](CCCCN)C(=O)N[C@@H](CC(C)C)C(=O)N1CCC[C@H]1C(=O)N1CCC[C@H]1C(=O)N[C@@H](CCCCN)C(=O)N[C@H](C(=O)N[C@@H](Cc1ccc(O)cc1)C(=O)O)[C@@H](C)O [Peptide P10] (H-QHIPKLPPKTY-OH; N-terminus and C-terminus assumed)
> 200 µM	16.7 µM	> 200 µM	39 µM	> 200 µM	> 200 µM	11 µM	> 200 µM	> 200 µM	11 µM	3.4 µM	> 200 µM	CC(C)[C@H](N)C(=O)N1CCC[C@H]1C(=O)N[C@H](C(=O)N1CCC[C@H]1C(=O)N1CCC[C@H]1C(=O)N1CCC[C@H]1C(=O)N[C@H](C(=O)N1CCC[C@H]1C(=O)N1CCC[C@H]1C(=O)N[C@@H](CCCNC(=N)N)C(=O)N[C@@H](CCCNC(=N)N)C(=O)N[C@@H](CCCNC(=N)N)C(=O)O)C(C)C)C(C)C [RP1, reference compound]
> 200 µM	15.5 µM	> 200 µM	11 µM	> 200 µM	> 200 µM	> 200 µM	> 200 µM	> 200 µM	20 µM	12.9 µM	48 µM	CC(C)[C@H](NC(=O)[C@@H]1CCCN1C(=O)[C@@H]1CCCN1C(=O)[C@H](C)NC(=O)[C@H](CCC(=O)O)NC(=O)[C@H](CS)NC(=O)[C@@H](N)CCCNC(=N)N)C(=O)N1CCC[C@H]1C(=O)N1CCC[C@H]1C(=O)N[C@@H](CCCNC(=N)N)C(=O)N[C@@H](CCCNC(=N)N)C(=O)N[C@@H](CCC(=O)O)C(=O)N[C@@H](CCCNC(=N)N)C(=O)NCC(=O)O [RP2, reference compound] (H-RCEAPPVPPRRERG-OH)
